Tests used:
[1] = species: Homo sapiens; experiment: Selectivity ratio of IC50 for inhibition of JAK3 (unknown origin) to IC50 for inhibition of ErbB4 (unknown origin); details: dose 10.0 µM, time 40.0 min
[2] = test system: T47D; experiment: Antiproliferative activity against human T47D cells assessed as cell growth inhibition measured after 48 hrs by SRB assay; assay type: functional, cell-based
[3] = species: Homo sapiens; experiment: Selectivity ratio of IC50 for inhibition of JNK3 (unknown origin) to IC50 for inhibition of ErbB4 (unknown origin); details: dose 10.0 µM, time 40.0 min
[4] = test system: WI-38; experiment: Cytotoxicity against human WI-38 cells assessed as cell growth inhibition measured after 48 hrs by SRB assay; assay type: cell-based; details: WI-38, 48 h
[5] = target: Cytochrome P450 3A4 (Homo sapiens, UniProt P08684); experiment: Inhibition of CYP3A4 (unknown origin) using BOMCC as a substrate incubated for 20 mins by fluorescence based analysis; assay type: ADME
[6] = test system: MDA-MB-468; experiment: Antiproliferative activity against human MDA-MB-468 cells assessed as cell growth inhibition measured after 48 hrs by SRB assay; assay type: functional, cell-based; details: MDA-MB-468, 48 h
[7] = test system: DU-145; experiment: Antiproliferative activity against human DU-145 cells assessed as cell growth inhibition measured after 48 hrs by SRB assay; assay type: functional, cell-based; details: DU-145, 48 h
[8] = test system: U-251; experiment: Antiproliferative activity against human U-251 cells assessed as cell growth inhibition at 10 uM measured after 48 hrs by SRB assay relative to control; assay type: functional
[9] = test system: MOLT-4; experiment: Antiproliferative activity against human MOLT-4 cells assessed as cell growth inhibition measured after 48 hrs by SRB assay; assay type: functional, cell-based; details: MOLT-4, 48 h
[10] = test system: MOLT-4; experiment: Antiproliferative activity against human MOLT-4 cells assessed as cell growth inhibition at 10 uM measured after 48 hrs by SRB assay relative to control; assay type: functional
[11] = target: Receptor tyrosine-protein kinase erbB-4 (Homo sapiens, UniProt Q15303); experiment: Inhibition of ErbB4 expressed in human T47D cells at antiproliferative IC50 in presence of -neuregulin 1 incubated for 90 mins by sandwich ELISA relative to control; assay type: cell-based
[12] = target: hERG (KCNH2) (Homo sapiens, UniProt Q12809); experiment: Safety index, ratio of test compound IC50 to E-4031 IC50 for inhibition of human ERG incubated for 3 hrs by competitive fluorescence tracer binding based assay; details: read-out: Ratio IC50
[13] = target: Tyrosine-protein kinase JAK3 (Homo sapiens) (UniProt P52333); experiment: Inhibition of JAK3 (unknown origin) at 10 uM incubated for 40 mins in presence of Mg/ATP mix by [gamma p33]-ATP based scintillation counting method relative to control
[14] = Cytotoxicity against human WI-38 cells assessed as cell growth inhibition at 10 uM measured after 48 hrs by SRB assay relative to control; assay type: cell-based
[15] = species: Homo sapiens; experiment: Selectivity ratio of IC50 for inhibition of EGFR (unknown origin) to IC50 for inhibition of ErbB4 (unknown origin); details: dose 10.0 µM, time 40.0 min
[16] = test system: SK-MEL-5; experiment: Antiproliferative activity against human SK-MEL-5 cells assessed as cell growth inhibition at 10 uM measured after 48 hrs by SRB assay relative to control; assay type: functional
[17] = test system: MDA-MB-468; experiment: Antiproliferative activity against human MDA-MB-468 cells assessed as cell growth inhibition at 10 uM measured after 48 hrs by SRB assay relative to control; assay type: functional

Chain of Tyrosine-protein kinase JAK3 (Homo sapiens) (P52333 whole entry): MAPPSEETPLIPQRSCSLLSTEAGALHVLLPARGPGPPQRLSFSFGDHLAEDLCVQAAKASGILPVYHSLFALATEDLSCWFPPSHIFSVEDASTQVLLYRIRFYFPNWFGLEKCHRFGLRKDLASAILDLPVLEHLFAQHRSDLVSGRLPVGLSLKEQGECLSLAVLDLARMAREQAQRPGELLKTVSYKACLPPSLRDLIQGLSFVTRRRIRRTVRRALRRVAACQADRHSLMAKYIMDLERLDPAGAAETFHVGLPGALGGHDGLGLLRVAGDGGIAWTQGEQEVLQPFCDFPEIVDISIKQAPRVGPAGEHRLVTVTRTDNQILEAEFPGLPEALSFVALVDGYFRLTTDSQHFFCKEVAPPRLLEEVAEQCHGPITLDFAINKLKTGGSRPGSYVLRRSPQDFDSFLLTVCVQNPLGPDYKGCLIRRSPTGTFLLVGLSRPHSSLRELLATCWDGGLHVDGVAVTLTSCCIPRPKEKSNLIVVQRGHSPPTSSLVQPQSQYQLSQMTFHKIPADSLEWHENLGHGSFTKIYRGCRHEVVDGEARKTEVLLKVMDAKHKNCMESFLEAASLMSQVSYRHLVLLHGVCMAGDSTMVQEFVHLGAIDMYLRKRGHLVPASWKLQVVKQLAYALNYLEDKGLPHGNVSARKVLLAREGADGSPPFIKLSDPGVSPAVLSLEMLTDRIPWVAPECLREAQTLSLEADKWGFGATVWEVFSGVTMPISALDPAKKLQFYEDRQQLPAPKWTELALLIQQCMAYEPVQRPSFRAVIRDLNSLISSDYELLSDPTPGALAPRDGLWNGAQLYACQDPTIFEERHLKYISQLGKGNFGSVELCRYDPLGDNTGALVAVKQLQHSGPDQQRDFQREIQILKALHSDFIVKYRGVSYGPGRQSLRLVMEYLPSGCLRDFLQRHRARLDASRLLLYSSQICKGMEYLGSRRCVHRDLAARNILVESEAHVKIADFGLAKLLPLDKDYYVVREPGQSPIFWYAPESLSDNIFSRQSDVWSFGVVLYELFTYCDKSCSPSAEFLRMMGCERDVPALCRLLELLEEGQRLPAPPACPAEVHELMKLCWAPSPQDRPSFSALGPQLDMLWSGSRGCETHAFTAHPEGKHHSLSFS
Chain of Receptor tyrosine-protein kinase erbB-4 (Q15303 whole entry): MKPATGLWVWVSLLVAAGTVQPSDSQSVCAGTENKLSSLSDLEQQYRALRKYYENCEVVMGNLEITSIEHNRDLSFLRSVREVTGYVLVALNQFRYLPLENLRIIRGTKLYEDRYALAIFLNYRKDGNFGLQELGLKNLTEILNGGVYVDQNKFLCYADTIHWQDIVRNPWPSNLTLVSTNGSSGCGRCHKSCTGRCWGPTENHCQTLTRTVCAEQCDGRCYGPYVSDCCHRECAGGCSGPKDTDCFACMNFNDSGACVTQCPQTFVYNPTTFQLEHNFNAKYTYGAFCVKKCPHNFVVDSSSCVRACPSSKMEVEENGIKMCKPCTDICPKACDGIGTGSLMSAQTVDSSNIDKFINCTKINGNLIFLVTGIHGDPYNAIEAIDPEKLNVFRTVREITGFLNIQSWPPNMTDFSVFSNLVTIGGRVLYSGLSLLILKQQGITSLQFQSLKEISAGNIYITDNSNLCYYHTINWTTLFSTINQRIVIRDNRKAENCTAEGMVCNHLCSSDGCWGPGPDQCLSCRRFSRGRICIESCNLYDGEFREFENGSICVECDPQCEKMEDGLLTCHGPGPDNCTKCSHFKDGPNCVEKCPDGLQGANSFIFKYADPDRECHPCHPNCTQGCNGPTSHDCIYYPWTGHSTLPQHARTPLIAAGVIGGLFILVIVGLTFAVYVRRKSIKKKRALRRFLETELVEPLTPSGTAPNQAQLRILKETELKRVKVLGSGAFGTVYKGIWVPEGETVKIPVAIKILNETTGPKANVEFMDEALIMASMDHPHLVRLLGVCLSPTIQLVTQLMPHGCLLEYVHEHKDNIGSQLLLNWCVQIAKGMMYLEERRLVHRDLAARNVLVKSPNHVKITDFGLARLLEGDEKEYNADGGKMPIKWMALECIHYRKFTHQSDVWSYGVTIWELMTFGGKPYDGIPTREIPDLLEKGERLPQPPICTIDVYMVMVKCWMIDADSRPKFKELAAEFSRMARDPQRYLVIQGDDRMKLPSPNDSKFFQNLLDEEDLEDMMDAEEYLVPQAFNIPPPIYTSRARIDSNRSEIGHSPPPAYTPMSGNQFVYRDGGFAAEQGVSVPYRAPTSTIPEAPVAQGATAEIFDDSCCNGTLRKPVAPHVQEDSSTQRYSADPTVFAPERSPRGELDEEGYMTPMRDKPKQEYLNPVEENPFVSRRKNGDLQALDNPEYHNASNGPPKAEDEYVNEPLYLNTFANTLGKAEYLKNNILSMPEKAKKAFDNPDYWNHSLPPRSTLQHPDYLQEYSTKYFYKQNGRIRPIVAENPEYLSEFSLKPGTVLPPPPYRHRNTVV
Chain of hERG (KCNH2) (Q12809 whole entry): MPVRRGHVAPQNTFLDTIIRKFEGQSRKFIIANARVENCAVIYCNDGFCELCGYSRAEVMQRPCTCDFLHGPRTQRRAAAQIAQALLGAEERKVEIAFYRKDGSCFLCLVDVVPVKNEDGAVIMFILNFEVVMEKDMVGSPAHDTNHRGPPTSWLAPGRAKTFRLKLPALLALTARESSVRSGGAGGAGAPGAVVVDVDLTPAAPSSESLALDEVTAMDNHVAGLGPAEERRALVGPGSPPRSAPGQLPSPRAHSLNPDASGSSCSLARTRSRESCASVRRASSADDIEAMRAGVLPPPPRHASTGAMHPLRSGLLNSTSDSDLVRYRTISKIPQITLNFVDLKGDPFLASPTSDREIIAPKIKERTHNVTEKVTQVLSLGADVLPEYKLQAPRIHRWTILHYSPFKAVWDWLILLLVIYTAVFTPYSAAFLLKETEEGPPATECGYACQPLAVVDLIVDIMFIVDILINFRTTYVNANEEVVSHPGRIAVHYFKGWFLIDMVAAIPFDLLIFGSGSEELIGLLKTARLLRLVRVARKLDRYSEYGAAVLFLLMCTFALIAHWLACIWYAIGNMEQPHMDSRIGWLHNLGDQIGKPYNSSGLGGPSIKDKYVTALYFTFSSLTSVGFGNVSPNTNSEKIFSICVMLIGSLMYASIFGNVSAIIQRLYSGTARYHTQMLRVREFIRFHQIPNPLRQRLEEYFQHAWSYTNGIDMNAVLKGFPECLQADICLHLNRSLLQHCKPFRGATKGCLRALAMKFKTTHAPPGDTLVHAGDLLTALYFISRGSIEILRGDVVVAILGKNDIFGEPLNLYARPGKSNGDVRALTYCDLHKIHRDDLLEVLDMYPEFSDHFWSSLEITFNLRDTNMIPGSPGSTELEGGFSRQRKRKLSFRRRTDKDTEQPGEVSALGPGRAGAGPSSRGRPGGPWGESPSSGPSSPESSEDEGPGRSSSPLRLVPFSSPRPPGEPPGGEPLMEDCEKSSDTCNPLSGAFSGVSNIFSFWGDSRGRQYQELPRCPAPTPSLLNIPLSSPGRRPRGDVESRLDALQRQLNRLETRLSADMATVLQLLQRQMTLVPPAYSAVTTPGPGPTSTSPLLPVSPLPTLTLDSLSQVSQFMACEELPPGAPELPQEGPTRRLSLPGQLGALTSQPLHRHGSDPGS
Chain of Cytochrome P450 3A4 (P08684 whole entry): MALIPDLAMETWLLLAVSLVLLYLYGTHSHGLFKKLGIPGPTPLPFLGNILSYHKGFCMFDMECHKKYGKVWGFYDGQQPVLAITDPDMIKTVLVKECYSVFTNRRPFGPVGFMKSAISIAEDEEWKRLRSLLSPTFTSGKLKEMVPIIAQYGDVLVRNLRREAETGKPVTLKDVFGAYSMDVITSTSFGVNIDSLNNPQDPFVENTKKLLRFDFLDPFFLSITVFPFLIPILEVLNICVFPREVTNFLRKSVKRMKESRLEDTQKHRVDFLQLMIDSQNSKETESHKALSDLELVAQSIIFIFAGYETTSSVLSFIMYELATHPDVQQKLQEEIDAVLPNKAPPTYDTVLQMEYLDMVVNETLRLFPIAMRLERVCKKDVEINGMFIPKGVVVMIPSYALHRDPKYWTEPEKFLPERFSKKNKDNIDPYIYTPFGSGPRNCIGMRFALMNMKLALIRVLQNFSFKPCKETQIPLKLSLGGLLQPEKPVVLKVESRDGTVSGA

With `CS(=O)(=O)c1nccc(-c2c(-c3cccc(OCc4ccccc4)c3)nc3sccn23)n1` the Ratio IC50 [1] was 548, the IC50 [2] was 4080 nM and the Ratio IC50 [3] was 341. It also gave an IC50 [4] of 8540 nM, an IC50 [5] of 17800 nM and an IC50 [6] of 1040 nM. For the same compound, the IC50 [7] was 1670 nM, the inhibition at 10 µM [8] was 10.9% and the IC50 [9] was 1020 nM. For the same compound, the inhibition at 10 µM [10] was 73.5%, the inhibition [11] was > 50% and the selectivity ratio at 3 h [12] was 513. It also gave an inhibition [13] of 77.5%, an inhibition at 48 h, 10 µM [14] of 56.4% and a Ratio IC50 [15] of 651. The inhibition at 10 µM [16] was 99.9% and the inhibition at 10 µM [17] was 165%.
